{"source": "patent US11773127B2", "about": "“Compounds and methods for treating bacterial infections” (Washington University, priority 2017, dated 2023)", "target": "T1, FmlHLD (Escherichia coli, UniProt P77588)", "T1 construct": "6xHis (C); made in house; host or cells: E. coli C600, periplasm, pTRC99a", "T1 sequence (P77588 25-182)": "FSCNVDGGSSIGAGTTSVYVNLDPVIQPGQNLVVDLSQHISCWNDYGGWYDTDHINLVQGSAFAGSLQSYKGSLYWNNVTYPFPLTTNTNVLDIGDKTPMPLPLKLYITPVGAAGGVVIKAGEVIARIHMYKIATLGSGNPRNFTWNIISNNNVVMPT", "experiment": "biochemical", "type": "binding, E. coli", "settings": "for PI100 (percent inhibition): galactoside at 100 μM, 100 µM; for inhibitory potency against FmlH, in words: ELISA-based competition assay", "method_in_brief": "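Sialidase-treated bovine submaxillary mucin (ds-BSM) coated wells, BSA-blocked, then biotinylated FmlH^LD (20 μg/mL) with or without compound for 1 h at room temperature. Bound lectin detected by streptavidin-HRP/TMB, A450.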", "key": {"[1]": {"settings": "IC50, inhibition of FmlHLD binding to ds-BSM"}, "[2]": {"settings": "read-out: PI100 (percent inhibition), galactoside at 100 μM, mean with standard error of the mean"}, "[3]": {"settings": "mean with standard error of the mean"}, "[4]": {"settings": "read-out: PI10 (percent inhibition), galactoside at 10 μM, mean with standard error of the mean"}, "[5]": {"settings": "read-out: % Inhibition at [μM] [100], compound at 100 μM, inhibition of FmlHLD binding to ds-BSM"}, "[6]": {"settings": "IC50 (μM), Table 6, sulfonamides 3078-3090"}, "[7]": {"settings": "IC50 (μM), Table 5, Gal and GalNAc inhibition of FmlH"}, "[8]": {"settings": "read-out: % Inhibition at [μM] [1], compound at 1 μM, inhibition of FmlHLD binding to ds-BSM"}, "[9]": {"settings": "read-out: PI(1) (average percent inhibition), compound at 1 μM, Table 4"}, "[10]": {"settings": "read-out: % Inhibition at [μM] [10], compound at 10 μM, inhibition of FmlHLD binding to ds-BSM"}}, "note": "Read-outs that look alike come from different tables or passages of the source."}
{"compound": "CC(=O)N[C@H]1[C@H](Oc2cccc(C)c2-c2cccc(NS(=O)(=O)C3CC3)c2)O[C@H](CO)[C@H](O)[C@@H]1O", "note": "[AM2151]", "values": [{"measurement": "IC50", "setting": "[1]", "value": 0.12, "unit": "µM"}]}
{"compound": "CC(C)S[C@@H]1O[C@H](CO)[C@H](O)[C@H](O)[C@H]1O", "note": "[36β-thio (IPTG), reference compound]", "values": [{"measurement": "inhibition at 100 µM", "setting": "[2]", "value": "23.7 ± 5.3", "unit": "%"}]}
{"compound": "OC[C@H]1O[C@@H](Oc2ccc3ccccc3c2)[C@H](O)[C@@H](O)[C@H]1O", "note": "[Compound 19β]", "values": [{"measurement": "PI100 (percent inhibition)", "setting": "[3]", "value": "78.8 ± 2.1", "unit": "%"}, {"measurement": "inhibition at 10 µM", "setting": "[4]", "value": "14.6 ± 3.1", "unit": "%"}, {"measurement": "inhibition at 100 µM", "setting": "[2]", "value": 79, "unit": "%"}]}
{"compound": "COC(=O)c1cccc(-c2ccccc2O[C@H]2O[C@H](CO)[C@H](O)[C@H](O)[C@H]2O)c1", "note": "[Compound 30α, 2′-(α/β-D-galactopyranosyloxy)-[1,1′-Biphenyl]-3-carboxylic acid methyl ester]", "values": [{"measurement": "inhibition at 100 µM", "setting": "[2]", "value": "13.1 ± 7.6", "unit": "%"}]}
{"compound": "OC[C@H]1O[C@H](Oc2ccccc2-c2ccccc2)[C@H](O)[C@@H](O)[C@H]1O", "note": "[Compound 113f1]", "values": [{"measurement": "inhibition at 100 µM", "setting": "[5]", "value": 19.2, "unit": "%"}]}
{"compound": "COc1cccc(O[C@@H]2OC(CO)[C@H](O)[C@H](O)[C@@H]2NC(C)=O)c1-c1cccc(NS(C)(=O)=O)c1", "note": "(stereo partly drawn) [Compound 3083, N-((2S,3S,4R,5R)-4,5-dihydroxy-6-(hydroxymethyl)-2-((6-methoxy-3′-(methylsulfonamido)-[1,1′-biphenyl]-2-yl)oxy)tetrahydro-2H-pyran-3-yl)acetamide]", "values": [{"measurement": "IC50", "setting": "[6]", "value": 0.15, "unit": "µM"}]}
{"compound": "CC(=O)N[C@H]1[C@H](Oc2ccccc2-c2cccc(O)c2)O[C@H](CO)[C@H](O)[C@@H]1O", "note": "[AM2021, N-((2S,3R,4R,5R,6R)-4,5-dihydroxy-2-((3′-hydroxy-[1,1′-biphenyl]-2-yl)oxy)-6-(hydroxymethyl)tetrahydro-2H-pyran-3-yl)acetamide]", "values": [{"measurement": "inhibitory potency against FmlH, in words", "value": "equal or slightly reduced potency"}, {"measurement": "IC50", "setting": "[7]", "value": 0.7, "unit": "µM"}, {"measurement": "inhibition at 1 µM", "setting": "[8]", "value": 17.7, "unit": "%"}, {"measurement": "inhibition at 1 µM", "setting": "[9]", "value": 17.7, "unit": "%"}]}
{"compound": "O=[N+]([O-])c1ccc(O[C@@H]2O[C@H](CO)[C@H](O)[C@H](O)[C@H]2O)cc1", "note": "[p-Nitrophenyl Gal, reference compound]", "values": [{"measurement": "inhibition at 10 µM", "setting": "[10]", "value": 13.7, "unit": "%"}, {"measurement": "inhibition at 100 µM", "setting": "[5]", "value": 78.1, "unit": "%"}]}
{"compound": "COc1cc(OC)cc(O[C@@H]2O[C@H](CO)[C@H](O)[C@H](O)[C@H]2O)c1", "note": "[Compound 151d]", "values": [{"measurement": "inhibition at 10 µM", "setting": "[10]", "value": 11.7, "unit": "%"}, {"measurement": "inhibition at 100 µM", "setting": "[5]", "value": 76.4, "unit": "%"}]}
{"compound": "OC[C@H]1O[C@@H](Oc2c[nH]c3cc(Cl)ccc23)[C@H](O)[C@@H](O)[C@H]1O", "note": "[Compound 17β]", "values": [{"measurement": "PI100 (percent inhibition)", "setting": "[3]", "value": "41.2 ± 3.4", "unit": "%"}, {"measurement": "inhibition at 100 µM", "setting": "[2]", "value": 41, "unit": "%"}]}
{"compound": "CC(=O)N[C@H]1[C@H](Oc2ccc3ccccc3c2-c2cccc(NS(C)(=O)=O)c2)O[C@H](CO)[C@H](O)[C@@H]1O", "note": "[AM2144]", "values": [{"measurement": "IC50", "setting": "[1]", "value": 0.18, "unit": "µM"}]}
{"compound": "OC[C@H]1O[C@@H](Oc2ccccc2-c2ccccc2)[C@H](O)[C@@H](O)[C@H]1O", "note": "[Compound 28β, [1,1′-biphenyl]-2-yl α/β-D-galactopyranoside]", "values": [{"measurement": "PI100 (percent inhibition)", "setting": "[3]", "value": "91.1 ± 1.2", "unit": "%"}, {"measurement": "inhibition at 1 µM", "setting": "read-out: PI1 (percent inhibition), galactoside at 1 μM, mean with standard error of the mean", "value": "8.1 ± 6", "unit": "%"}, {"measurement": "inhibition at 10 µM", "setting": "[4]", "value": "31 ± 2.1", "unit": "%"}, {"measurement": "inhibition at 100 µM", "setting": "[2]", "value": 91, "unit": "%"}]}
{"compound": "CC(=O)N[C@H]1[C@H](Oc2cccc(C(=O)OCc3ccccc3)c2-c2cccc(NS(C)(=O)=O)c2)O[C@H](CO)[C@H](O)[C@@H]1O", "note": "[AM2141]", "values": [{"measurement": "IC50", "setting": "[1]", "value": 0.18, "unit": "µM"}]}
{"compound": "N#Cc1ccc(O[C@@H]2O[C@H](CO)[C@H](O)[C@H](O)[C@H]2O)cc1", "note": "[Compound 152b]", "values": [{"measurement": "inhibition at 1 µM", "setting": "[8]", "value": 9.47, "unit": "%"}, {"measurement": "inhibition at 10 µM", "setting": "[10]", "value": 19.2, "unit": "%"}, {"measurement": "inhibition at 100 µM", "setting": "[5]", "value": 85.7, "unit": "%"}]}
{"compound": "CC(=O)N[C@H]1[C@H](Oc2ccc3ccccc3c2-c2cccc(NS(C)(=O)=O)c2)O[C@H](CO)[C@H](O)[C@@H]1O", "note": "[Compound 3085, N-((2S,3R,4R,5R,6R)-4,5-dihydroxy-6-(hydroxymethyl)-2-((1-(3-(methylsulfonamido)phenyl)naphthalen-2-yl)oxy)tetrahydro-2H-pyran-3-yl)acetamide]", "values": [{"measurement": "IC50", "setting": "[6]", "value": 0.18, "unit": "µM"}]}
{"compound": "CNC(=O)c1cccc(-c2ccccc2O[C@@H]2O[C@H](CO)[C@H](O)[C@H](O)[C@H]2NC(C)=O)c1", "note": "[AM1189, 2′-(((2S,3R,4R,5R,6R)-3-acetamido-4,5-dihydroxy-6-(hydroxymethyl)tetrahydro-2H-pyran-2-yl)oxy)-N-methyl-[1,1′-biphenyl]-3-carboxamide]", "values": [{"measurement": "inhibitory potency against FmlH, in words", "value": "equal or slightly reduced potency"}, {"measurement": "IC50", "setting": "[7]", "value": 3.36, "unit": "µM"}, {"measurement": "inhibition at 1 µM", "setting": "[8]", "value": 12.3, "unit": "%"}, {"measurement": "inhibition at 1 µM", "setting": "[9]", "value": 12.3, "unit": "%"}]}
